Assay results published in US20150209474A1, “METHOD FOR PRODUCING AN ALGINATE COATED TITANIUM DIOXIDE SCAFFOLD” (CORTICALIS AS, priority 2012, published 2015).
Ends that are not written are not given here.

Assays:
MC3T3-E1 cells [1] = experiment: Gene expression of adhesion and osteoblast markers by real-time RT-PCR, cells on alginate hydrogels; format: cell-based, mouse; settings: 50 μg/ml in 2% alginate gel
Method: (§1) The mouse osteoblastic cell line MC3T3-E1 (DSMZ, Braunschweig, Germany) was maintained as previously described (Tiainen H et al., 2011). Before seeding, 24-well culture plates containing crosslinked alginate hydrogels were washed with 750 μl of culture media to remove the excess of CaCl2. After evaluation of the efficiency of cell adhesion on 2% alginate gel using different cell densities, for the final experiments, cells were seeded at a density of 100 000 cells/well. Media was refreshed twice a week. Culture media was collected 24 h after seeding to study cell viability. Cells were harvested at days 14 and 21 to analyze gene expression of adhesion and osteogenic-related markers using real-time RT-PCR. Cultures were routinely observed using light microscopy (Leica DMIRB, Leica Microsystems Wetzlar GmbH, Germany).
Total RNA was isolated using Tripure® (Roche Diagnostics, Mannheim, Germany), according to the manufacturer's protocol. Total RNA was quantified at 260 nm using a Nanodrop spectrophotometer (NanoDrop Technologies, Wilmington, Del., USA).
The same amount of RNA (350 ng) was reverse transcribed to cDNA using high capacity RNA-to-cDNA kit (Applied Biosystems, Foster City, Calif.), according to the protocol of the supplier. Aliquots of each cDNA were frozen (−20° C.) until the PCR reactions were carried out.
Real-time PCR was performed in the Lightcycler 480® (Roche Diagnostics, Mannheim, Germany) using SYBR green detection. Real-time PCR was done for two reference genes (18SrRNA and glyceraldehyde-3-phosphate dehydrogenase (GAPDH)) and ten target genes (integrin alpha 8 (Itga8), integrin beta1 (Itgb1), integrin beta 3 (Itgb3), fibronectin 1 (Fn1), bone morphogenetic protein 2 (Bmp2), collagen type I (Coll-I), bone sialoprotein (Bsp), alkaline phosphatase (Alp), osteocalcin (Oc) and osteopontin (Opn)).
The primer sequences are detailed in Table 2. Reaction conditions and relative quantification have been done as previously described (Tiainen H et al., 2011).

MC3T3-E1 cells [2] = experiment: Cell viability: LDH activity in culture media, cells on alginate hydrogels; format: cell-based, mouse; settings: 50 μg/ml in alginate gel
Method: as §1
The LDH activity determined in the culture media after 24 h was taken as an indicator of membrane leakage or cell lysis. The activity of the cytosolic enzyme was estimated as previously described (Rupert M et al., 2011).

[3] = Peptide 2 release profile from TiO2 scaffolds coated with 2% alginate gel (UV-Vis); format: physicochemical; settings: P2-alginate-coated scaffolds, distilled water, 37° C.
Method: In order to mimic cell culture conditions, the samples were agitated on an orbital shaker at 200 rpm (IKA® Schüttler MTS 2, Germany) for 6 h at 37° C. and in humidity conditions (using a distilled water container). Then, samples were maintained at 37° C. in a humidified atmosphere for up to 21 days. At prefixed time points (2d, 5d, 7d, 9d, 12d, 14d, 16d, 19d and 21d), distilled water was collected and fresh distilled water was added into each well. Sample absorbances were analyzed by UV-Vis spectrophotometer (PerkinElmer® Lambda 25 UV/Vis Systems, USA) at a wavelength of 206 nm to determine the amount of peptide released. In parallel, TiO2 scaffolds coated with one layer of 2% alginate gel were used as control to subtract absorbance values obtained from degradation products from alginate.
Relative absorbance units were correlated with the amount of peptide released using a linear standard curve for each time point and the cumulative P2 released was then calculated. The experiment was performed in triplicate.

[4] = Peptide release profile from 2% alginate hydrogel (fluorescence spectroscopy); format: physicochemical
Method: To study the peptide release profile, P2 was labeled with FITC. The release of peptide contained into the 2% alginate hydrogel (50 μg/ml) was quantified by fluorescence spectroscopy. First, alginate hydrogels were washed with culture media to remove the excess of CaCl2. Then, 750 μl of cell culture media were added onto peptide loaded alginate hydrogel. The samples were incubated at 37° C. and 5% CO2 for 21 days and cell culture media was changed twice a week. At prefixed time points (24 h, 4 d, 7 d, 11 d, 14 d, 18 d and 21 d), supernatants were collected and analyzed by fluorescence spectroscopy (λ ex 490 nm and λ em 525 nm) to determine the amount of peptide released to the media. The amount of peptide released during the washing step was also measured. The experiment was performed three times, and each sample analyzed in triplicate.
Relative fluorescence units were correlated with the amount of peptide released using a linear standard curve for each time point.

[5] = system: primary human osteoblasts; experiment: Cytotoxicity assay: LDH activity in culture medium; format: cell-based; settings: for LDH activity compared to alginate-coated scaffolds without SIM: 14-day period
Method: Cells from passages 7-9 were seeded on scaffolds at a density of 400.000 cells/ml. […] Scaffolds soaked with culture medium were placed in 48-well culture plates. […] The culture medium was replaced every other day. Collected medium was saved for use in cytotoxicity, alkaline phosphatase (ALP) activity and protein expression assays.

Compound: PHQPMQPQPPVHPMQPLPPQPPLPP (Synthetic biomineralizing peptide) [Peptide P6]
- ALP mRNA levels compared to control (MC3T3-E1 cells [1]; 14 days): significantly decreased
- Expression of Opn compared to control (MC3T3-E1 cells [1]; 14 days): decreased significantly
- Fn1 mRNA compared to control (MC3T3-E1 cells [1]; 14 days): decreased significantly
- Itgb1 mRNA levels compared to control (MC3T3-E1 cells [1]; 14 days): significantly decreased
- Itgb3 mRNA compared to control (MC3T3-E1 cells [1]; 14 days): decreased significantly
- Bmp2 relative mRNA levels (MC3T3-E1 cells [1]; 14 days of treatment): increased significantly
- ALP mRNA levels compared to control (MC3T3-E1 cells [1]; 21 days): significantly decreased
- Itgb1 mRNA levels compared to EMD (MC3T3-E1 cells [1]; 21 days): reduced significantly
- Itgb3 and Fn1 mRNA compared to control (MC3T3-E1 cells [1]; 21 days): no differences
- Oc mRNA levels compared to control (MC3T3-E1 cells [1]; 21 days): increased

Compound: PLVPSSPLVPCCPLVPCCPSPPLPP (Synthetic biomineralizing peptide) [Peptide P5]
- toxic effects compared to EMD and to untreated alginate gel (MC3T3-E1 cells [2]; 24 h): significantly lower
- Oc mRNA levels compared to control (MC3T3-E1 cells [1]; 21 days): increased
- Expression of Itga8 compared to control (MC3T3-E1 cells [1]; "after days of culture" (number not given)): increased
- Itga8 expression (MC3T3-E1 cells [1]; after 21 days of treatment): markedly

Compound: PLVPSQPLVPSQPLVPSQPQPPLPP [Peptide P2]
- cell viability compared to EMD (MC3T3-E1 cells [2]; after 24 h): significantly increased
- Expression of Opn compared to control (MC3T3-E1 cells [1]; 14 days): decreased significantly
- Fn1 mRNA compared to control (MC3T3-E1 cells [1]; 14 days): decreased significantly
- Itgb1 mRNA levels compared to control (MC3T3-E1 cells [1]; 14 days): significantly decreased
- Itgb3 mRNA compared to control (MC3T3-E1 cells [1]; 14 days): decreased significantly
- ALP mRNA levels compared to control (MC3T3-E1 cells [1]; 21 days): significantly decreased
- Bmp2 relative mRNA levels compared to EMD (MC3T3-E1 cells [1]; 21 days): decreased
- Itgb3 and Fn1 mRNA compared to control (MC3T3-E1 cells [1]; 21 days): no differences
- amount of peptide released after 5 days [3]: 9.4 % of the cumulative amount rel
- burst release of the peptide during the first 2 days of incubation [3]: 42.8 % of the cumulative amount of P2 released after 21 days
- burst release of the peptide during the first 24 h of incubation ([4]; P2 FITC-labeled, 50 μg/ml in 2% alginate hydrogel, culture media, 37° C.): 54.67%
- total peptide theoretically contained in the hydrogel not released after 21 days ([4]; P2 FITC-labeled, 2% alginate hydrogel, 21 days): 5.6%
- peptide slowly released up to 11 days ([4]; P2 FITC-labeled, 2% alginate hydrogel, after the first 24 h, up to 11 days): 25.8%
- loaded peptide released during the washing step ([4]; washing of alginate hydrogels with culture media to remove excess CaCl2): 12.7%

Compound: CCC(C)(C)C(=O)O[C@H]1C[C@@H](C)C=C2C=C[C@H](C)[C@H](CC[C@@H]3C[C@@H](O)CC(=O)O3)[C@H]21 [SIM, simvastatin]
- LDH activity compared to alginate-coated scaffolds without SIM ([5]; scaffolds with 10 nM SIM): Neither of the SIM concentrations caused a significant increase
- LDH activity compared to alginate-coated scaffolds without SIM ([5]; scaffolds with 10 μM SIM): Neither of the SIM concentrations caused a significant increase
- LDH activity, scaffolds with 10 μM SIM compared to scaffolds with 10 nM SIM ([5]; throughout the 14-day period): higher
